Assay results from the supplement of paper PMC10627819.

Key:
S. aureus Newman [1] = experiment: fitness (endpoint OD595 vs no drug) (fraction); higher = more growth
How it was run: (§1)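 Volumes were 30 µl per well, or 55 µl for S. pneumoniae, in 384-well plates inoculated at OD595 0.01. Media were TSB, LB Lennox or CY at 37 °C, and OD595 was read every 30 min for 14 h with first-reading background subtraction. Fitness is the ratio of optical density at stationary-phase entry to the robust mean of no-drug controls. That ratio is capped at 1.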

S. pneumoniae D39V [2] = experiment: as above
How it was run: as §1

B. subtilis 168 = experiment: Bliss interaction score (quartile over a dose matrix) (fitness difference); higher = more antagonism (negative = synergy)
How it was run: (§2)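 Fitness here means normalised growth, inferred for single drugs from the combination data. Growth was OD595 at entry into stationary phase, divided by the plate's robust no-drug mean and capped at 1. The Bliss score is observed minus expected fitness, with the expectation being the product, and its quartiles span technical, biological and donor/recipient replicates.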

S. aureus DSM 20231 = experiment: as above
How it was run: as §2

S. aureus Newman [3] = experiment: as above
How it was run: as §2

S. pneumoniae D39V [4] = experiment: as above
How it was run: as §2
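Throughout, for Bliss interaction score (quartile over a dose matrix): first quartile when negative (synergy) and third quartile when positive (antagonism).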

CC1(C)S[C@@H]2[C@H](NC(=O)[C@H](N)c3ccc(O)cc3)C(=O)N2[C@H]1C(=O)O [Amoxicillin] + O=C(O)c1cn(C2CC2)c2cc(N3CCNCC3)c(F)cc2c1=O [Ciprofloxacin]
Settings	fitness
S. aureus Newman [1], first compound 0.0625 µg/mL, partner 0.0375 µg/mL	0.734
S. aureus Newman [1], first compound 0.0625 µg/mL, partner 0.075 µg/mL	0.656
S. pneumoniae D39V [2], first compound 0.0008 µg/mL, partner 0.125 µg/mL	0.93
S. pneumoniae D39V [2], first compound 0.0008 µg/mL, partner 0.25 µg/mL	0.834
S. pneumoniae D39V [2], first compound 0.0015 µg/mL, partner 0.125 µg/mL	0.94
S. pneumoniae D39V [2], first compound 0.0015 µg/mL, partner 0.25 µg/mL	0.828
S. pneumoniae D39V [2], first compound 0.003 µg/mL, partner 0.125 µg/mL	0.934
S. pneumoniae D39V [2], first compound 0.003 µg/mL, partner 0.25 µg/mL	0.826
S. pneumoniae D39V [2], first compound 0.003 µg/mL, partner 0.5 µg/mL	0.747

fitness, one replicate
Settings	partner 0.078 µg/mL	partner 0.125 µg/mL	partner 0.156 µg/mL	partner 0.25 µg/mL	partner 0.312 µg/mL	partner 0.5 µg/mL
S. aureus Newman [1], first compound 0.0625 µg/mL	0.327	–	0.075	–	0.0582	–
S. aureus Newman [1], first compound 0.125 µg/mL	0.192	–	0.0621	–	0.038	–
S. aureus Newman [1], first compound 0.25 µg/mL	0.144	–	0.056	–	0.0663	–
S. pneumoniae D39V [2], first compound 0.006 µg/mL	–	0.549	–	0.474	–	0.453

Settings	Bliss interaction score
B. subtilis 168	-0.063
S. aureus DSM 20231	-0.0788
S. aureus Newman [3]	-0.0561
S. pneumoniae D39V [4]	0.0751

CO/N=C(\C(=O)N[C@@H]1C(=O)N2C(C(=O)[O-])=C(C[N+]3(C)CCCC3)CS[C@H]12)c1csc(N)n1 [Cefepime] + C/C(=C\C(=O)OCCCCCCCCC(=O)O)C[C@@H]1OC[C@H](C[C@@H]2O[C@H]2[C@@H](C)[C@H](C)O)[C@@H](O)[C@H]1O [Pseudomonic acid]
fitness, S. aureus Newman [1], one replicate
Settings	first compound 0.125 µg/mL	first compound 0.25 µg/mL	first compound 0.5 µg/mL
partner 0.0313 µg/mL	0.0486	0.044	0.0558
partner 0.0625 µg/mL	0.0381	0.0306	0.0329
partner 0.125 µg/mL	0.0329	0.0557	0.0514

fitness, S. pneumoniae D39V [2]
Settings	first compound 0.007 µg/mL	first compound 0.0078 µg/mL	first compound 0.014 µg/mL	first compound 0.0155 µg/mL	first compound 0.028 µg/mL	first compound 0.031 µg/mL
partner 0.03 µg/mL	≥ 1	0.93	≥ 1	0.945	≥ 1	0.747
partner 0.06 µg/mL	0.924	0.814	0.976	0.796	0.968	0.631
partner 0.12 µg/mL	0.583	0.578	0.631	0.56	0.568	0.382

Settings	Bliss interaction score
B. subtilis 168	0.0521
S. aureus DSM 20231	0.0141
S. aureus Newman [3]	0.0093
S. pneumoniae D39V [4]	0.0923
